Measured values as given in patent publication US4235916A, “2-Methylthio-6-fluoro-9-(1-methyl-4-piperidylidene)-thioxanthene and salts thereof, neuroleptic compositions and method of use” (Kefalas A/S, priority 1977, dated 1980).
Read-outs that look alike come from different tables or passages of the source.

Experiments:
physostigmine = experiment: Physostigmine antagonism; format: in vivo, male; settings: Mus musculus, ip, 0.5 h; mice, i.p., physostigmine 2 mg/kg i.p. thirty minutes after test substance; survivors after 60 minutes; read-out: Physostigmine antag. (ED50)
Protocol: Physostigmine antagonism (ED50 mg/kg i.p.)
Scopolamine bromide 0.04 mg/ml or 0.1 mg/ml.
Physostigmine salicylate 0.2 mg/ml.
Five mice are used for each dose level. One group, serving as positive control, is injected with scopolamine 0.4 mg/kg i.p. Thirty minutes after i.p. administration of test substance (or scopolamine), physostigmine 2 mg/kg, is injected i.p. This dose of physostigmine induces tremor with salivation, clonic convulsions, coma and death. After 60 minutes the number of survivors are counted.
The results are recorded in fractions: 0/5, 1/5, 2/5, 3/5, 4/5 and 5/5 where 0, 1, 2, 3, 4 and 5 inducate the number of animals in which the test compound has prevented the occurrence of death.

amphetamine = experiment: Amphetamine antagonism; format: in vivo, Rats, male; settings: for ED50: Rattus norvegicus, ip, 2 h, rats, i.p., amphetamine sulphate 13.6 mg/kg i.v. two hours later, read-out: Amphetamine antag. (ED50)
Protocol: Amphetamine antagonism (ED50 mg/kg i.p.)
Perspex observation cages without bottom and lid, consisting of 5 sections each measuring 12×25×30 cm.
The test substance is given i.p. in a reasonable dose based on the determined LD50. Two hours later an intravenous injection of amphetamine sulphate 13.6 mg/kg (~10 mg/kg amphetamine base) is given, after which the rats are placed individually in the cages. The cages are placed on white corrugated paper. Five rats are used for each dose level. Observations are made after 55 minutes and 65 minutes--observation time: 1 minute. The animals are observed for stereotypy (movements of the head, compulsive gnawing). […] If the compound has full antagonistic effect another group of rats is used at a lower dose. […] The result is stated as fractions: 0/5, 1/5, 2/5, 3/5, 4/5 and 5/5, where 0, 1, 2, 3, 4 and 5 indicate the number of rats which have not shown stereotypy at the dose in question. The results are calculated as ED50 in mg/kg.

[1] = Determination of LD50 (acute toxicity, i.p.); format: in vivo, Mice, male; settings: for LD50 at 24 h: mouse, in vivo, ip, mice, i.p., deaths after 24 hours; for acute toxicity, in words: compared with Lu 14-089 or related thioxanthene derivatives
Protocol: Determination of LD50 (mg/kg i.p.)
Mice, male, weighing from 18-25 g, fasted from 4 p.m. the day before test day.
Four treated groups and one control group, each of 4 mice, are used.
The test substance is suspended in methyl cellulose 0.5% and injected intraperitoneally. The animals are placed in Macrolon cages type II. […] Furthermore the results are recorded according to the punching instructions as fractions: 0/4, 1/4, 2/4, 3/4 and 4/4 where 0, 1, 2, 3 and 4 indicate the number of deaths after the dose in question.

[2] = Catalepsy wire mesh, rat, max.; format: in vivo, male; settings: rats; for Ratio Catalep./Amphetam. antag.: catalepsy ED50 (s.c.) / amphetamine antagonism ED50 (i.p.); for ED50: rat, in vivo, sc, wire mesh, maximum effect within first 6 hours
Protocol: Catalepsy wire mesh, rat, max. (ED50 mg/kg s.c.)
A vertical wire netting (50 cm×49 cm). The meshes (openings) of the netting are square (1 cm×1 cm). The wire diameter is 2 mm.
The animals are labeled and used in groups of five. The test substance is injected subcutaneously (s.c.) (5 ml/kg) at 4 dose levels selected from the fixed dose scale.
The animals are placed in the middle of the vertical wire netting 60, 120, 180, 240, 300 and 360 minutes after injection of the test compound. The animals are considered cetaleptic when they remain immobile during a period of 15 seconds. This cataleptic reaction is designated +. If the rats are "atonic" and passively slides down the wire mesh they are considered not cataleptic. If the animals climb up and down the wire mesh they are nor cataleptic. In both situations the designation - is used.

methylphenidate = experiment: Methylphenidate antagonism; format: in vivo, male; settings: Mus musculus, ip, mice, i.p.
Protocol: Methylphenidate antagonism (ED50 mg/kg i.p.)
Perspex observation cages without bottom and lid, consisting of 5 sections each measuring 12×25×30 cm. White corrugated paper. Mice, male, 18-25 g.
3×2 mice are used for each dose level. Two or 24 hours after injection of test substance, methylphenidate, 60 mg/kg, is injected s.c.
After administration of methylphenidate the mice are placed in the observation cages, 2 in each cage, where they remain for exactly 1 hour. The cages are placed on corrugated paper, the corrugations facing upwards. It is examined whether the mice have been biting the corrugated paper or not. […] If one or more of the control pairs have not been biting, the test has to be repeated on a new set of mice.
The result is stated in fractions: 0/3, 1/3, 2/3 and 3/3 where 0, 1, 2 and 3 are the number of pairs which have not been biting on receipt of the dose in question.

apomorphine = experiment: Apomorphine vomit; format: in vivo, Adult Beagle dogs; settings: Canis lupus familiaris, sc, 4 h; Beagle dogs, s.c., four hours before apomorphine 25 μg/kg i.v.; calculated ED50 approximate; read-out: Apomorph. Vomit (ED50)
Protocol: Adult Beagle dogs of either sex, housed individually in kennels or in cages.
2-4 dogs are used per dose level.
The test compound is injected subcutanelusly in the back of the neck four hours before apomorphine, which is given intravenously in a dose of 25 μg/kg (volume 0.1 ml/kg).
The results are given as fractions, i.e. 0/2, 1/2 or 2/2, stating the number of dogs protected against vomiting over to the number of dogs. On account of the small number of animals the calculated ED50 should be considered approximate.

Muscarinic = Muscarinic affinity binding (3H-PrBCM, whole brain P2 fraction); design: species or system Rats; settings: displacement of specific 3H-PrBCM binding by 50%; rat brain, pH 7.4, 30° C.; read-out: Muscarine affinity (IC50)
Protocol: Muscarinic affinity binding
Sodium thiosulphate 10 mM (2.48 g/1000 ml) ^3 H-PrBCM (N-2'-chloroethyl-N-[2", 3"-^3 H2 ] propyl-2-aminoethylbenzilate,spec. act. ~28 Ci/mM).
A rat is killed by a blow on the head and exsanguinated. The whole brain is removed and homogenized in 10 volumes of ice cold 0.32 M sucrose with a hand homogenizer. The homogenate is centrifuged at 600 g for 10 minutes (4° C.) and the pellet discarded. The supernatant is then centrifuged at 25000 g for 55 minutes (4° C.). The pellet fraction (P2) is resuspended in the same volume of 0.32 M sucrose as previously used and stored on ice.
The aziridinium ion of ^3 H-propylbenzilyllcholine mustard (^3 H-PrBCM) is prepared by cyclization at a concentration of 130 nM in 15 mM Na-phosphate buffer (pH 7.4) for 50 minutes at 20° C. The reaction is terminated by addition of 100 volumes of ice cold buffer.
The incubation is continued for 15 minutes and stopped by addition of 20 ml 100 mM phosphate buffer containing 10 mM sodium thiosulphate. The samples are filtered through Whatman GF/C glass fiber filters and washed with 30 ml ice cold 100 mM phosphate buffer. The filters with synaptosomes are transferred to scintillation vials and the radio-activity measured by liquid scintillation counting after addition of 10 ml Instal-Gel (Packard Inst.). All experiments are performed in triplicate.
Specific ^3 H-PrBCM binding is defined as the total binding minus the binding in the presence of 20 μM atropine.

[3] = Neuroleptic and pharmacological profile evaluated by standard test methods (overall statements); format: in vivo
Text: The pharmacological testing of 2-methylthio-6-fluoro-9-(1-methyl-4-piperidylidene)-thioxanthene, in the following called Lu 14-089 for short, and its non-toxic acid addition salts consisted of standard and reliable tests.

[4] = Administration to human beings; settings: in vivo
Text: Lu 14-089 as well as the non-toxic acid addition salts thereof may be administered to animals such as dogs, cats, horses sheeps or the like, including human beings, both orally and parenterally, and may be used for example in the form of tablets capsules, powders, syrups, suppositories, or in the form of the usual sterile solutions for injection.

[5] = methylphenidate 60 mg/kg s.c. 2 h after test substance, read-out: Methylphenidate antag. 2h (ED50)
[6] = methylphenidate 60 mg/kg s.c. 24 h after test substance, read-out: Methylphenidate antag. 24h (ED50)

Row | Structure (SMILES) | ED50 (physostigmine) | ED50 (amphetamine) | LD50 at 24 h [1] | Ratio Catalep./Amphetam. antag. [2] | ED50 [2] | ED50 (methylphenidate; [5]) | ED50 (apomorphine) | IC50 (Muscarinic) | ED50 (methylphenidate; [6]) | neuroleptic activity as expressed by the amphetamine antagonism, in words (amphetamine; compared with Lu 14-089) | acute toxicity, in words [1] | neuroleptic effects, in words ([3]; compound and its non-toxic acid addition salts) | anticholinergic effects, in words ([3]; in vivo) | extrapyramidal side effects, in words ([3]; pharmacological profile, standard test methods) | Results upon administration to human beings [4]
1 | CN1CCC(=C2c3ccc(F)cc3Sc3ccc(Cl)cc32)CC1 [Lu 12-304, 2-Chloro-6-fluoro-9-(1-methyl-4-piperidylidene)-thioxanthene] | 8.9 mg/kg | 5.5 mg/kg | 187 mg/kg | 0.62 | 3.4 mg/kg | 4.6 mg/kg |  |  |  |  |  |  |  |  | 
2 | CN1CCC(=C2c3ccc(F)cc3Sc3ccc(C(F)(F)F)cc32)CC1 [Lu 12-312, 2-Trifluoromethyl-6-fluoro-9-(1-methyl-4-piperidylidene)-thioxanthene] | 7.7 mg/kg | 0.56 mg/kg | 188 mg/kg | 0.12 | 0.067 mg/kg | 0.07 mg/kg | 0.04 mg/kg | 18 nM | 2.1 mg/kg |  |  |  |  |  | 
3 | CN1CCC(=C2c3ccccc3Sc3ccc(C(F)(F)F)cc32)CC1 [Lu 13-003, 2-Trifluoromethyl-9-(1-methyl-4-piperidylidene)-thioxanthene] | 4.6 mg/kg | 0.37 mg/kg | 187 mg/kg | 3.5 | 1.3 mg/kg | 0.15 mg/kg |  | 8 nM |  |  |  |  |  |  | 
4 | CN1CCC(=C2c3ccccc3Sc3ccc(Cl)cc32)CC1 [Lu 13-016, 2-Chloro-9-(1-methyl-4-piperidylidene)-thioxanthene] | 4.4 mg/kg | 3.9 mg/kg | 226 mg/kg | 6.5 | 25 mg/kg | 1 mg/kg |  | 14 nM | > 20 mg/kg | much lower neuroleptic activity | higher acute toxicity |  |  |  | 
5 | CSc1ccc2c(c1)C(=C1CCN(C)CC1)c1ccc(F)cc1S2 [Lu 14-089, 2-methylthio-6-fluoro-9-(1-methyl-4-piperidylidene)-thioxanthene] | 7.2 mg/kg | 0.74 mg/kg | > 320 mg/kg | 8.5 | 6.3 mg/kg | 0.1 mg/kg | 0.014 mg/kg | 14 nM | 14 mg/kg |  | low acute toxicity compared with related thioxanthene derivatives | strong and relatively longlasting neuroleptic effects | strong anticholinergic effects | low extrapyrimidal side effects | very gratifying
6 | CSc1ccc2c(c1)C(=C1CCN(C)CC1)c1ccccc1S2 [Lu 14-145, 2-Methylthio-9-(1-methyl-4-piperidylidene)-thioxanthene] | 4.9 mg/kg | > 20 mg/kg | 188 mg/kg |  | > 20 mg/kg | 1.4 mg/kg |  | 13 nM | 14 mg/kg |  |  |  |  |  | 
7 | CN(C)CCCN1c2ccccc2Sc2ccc(Cl)cc21 [chlorpromazine] | > 40 mg/kg | 7.1 mg/kg | 226 mg/kg |  | 5.6 mg/kg | 4 mg/kg | 0.36 mg/kg |  | 20 mg/kg |  |  |  |  |  | 
8 | CN(C)CC/C=C1/c2ccccc2Sc2ccc(Cl)cc21 [chlorprothixene] | 86 mg/kg | 6.1 mg/kg | 226 mg/kg |  | 4 mg/kg | 0.71 mg/kg | 0.9 mg/kg |  | > 20 mg/kg |  |  |  |  |  | 
9 | OCCN1CCN(CCC=C2c3ccccc3Sc3ccc(Cl)cc32)CC1 [clopenthixol] | > 20 mg/kg | 0.77 mg/kg | 226 mg/kg |  | 0.95 mg/kg | 1.2 mg/kg | 0.04 mg/kg |  |  |  |  |  |  |  | 
10 | CN1CCN(C2=Nc3cc(Cl)ccc3Nc3ccccc32)CC1 [clozapine] | 24 mg/kg | > 40 mg/kg | > 320 mg/kg |  | 85 mg/kg | > 160 mg/kg | ~4 mg/kg |  |  |  |  |  |  |  | 
11 | OCCN1CCN(CCC=C2c3ccccc3Sc3ccc(C(F)(F)F)cc32)CC1 [flupentixol] | > 40 mg/kg | 0.69 mg/kg | 246 mg/kg | 0.36 | 0.25 mg/kg | 0.2 mg/kg | 0.02 mg/kg | 4000 nM | > 20 mg/kg |  |  |  |  |  | 
12 | OCCN1CCN(CCCN2c3ccccc3Sc3ccc(C(F)(F)F)cc32)CC1 [fluphenazine] | > 20 mg/kg | 0.08 mg/kg | 259 mg/kg |  | 0.099 mg/kg | 0.04 mg/kg | 0.007 mg/kg |  | 3.6 mg/kg |  |  |  |  |  | 
13 | O=C(CCCN1CCC(O)(c2ccc(Cl)cc2)CC1)c1ccc(F)cc1 [haloperidol] | > 20 mg/kg | 0.14 mg/kg | 226 mg/kg |  | 0.21 mg/kg | 0.06 mg/kg | 0.01 mg/kg |  |  |  |  |  |  |  | 
